Measurements as given in patent publication US20070237756A1, “Antimicrobial preparations” (PURAC BIOCHEM B.V., priority 2006, published 2007).

What was measured:
[1] = system: Salmonella enterica (ATCC 13311); conditions: broth cultures, to a concentration of 100 mM, single amino acid
[2] = system: Salmonella typhimurium ATCC 13311; assay: Growth in inoculated milk at 12° C., plate count; assay type: cell-based; conditions: non-fat milk; for CFU/ml, day 0: 0 days; for CFU/ml, day 2: 2 days; for CFU/ml, day 4: 4 days; for CFU/ml, day 6: 6 days
Experimental: Stock cultures of Salmonella typhimurium ATCC 13311 and Escherichia coli O157:H7 ATCC 700728 which were used to inoculate liquid cultures were routinely kept on agar plates containing brain heart infusion (Oxoid CM225, Basingstoke, United Kingdom) fortified with 1.5% agar. […] Just prior to the inoculation of the foods the cultures were diluted with a solution containing 0.1% peptone and 0.85% NaCl.
Sterile non-fat milk was obtained from a local supermarket. Appropriate quantities of amino acids were added.
Milk was cooled to 10° C. and subsequently inoculated with an appropriately diluted culture of Salmonella typhimurium. Inoculated milk samples were incubated at 12° C.
The microbial analysis of the food samples was done as follows: A sealing bag was opened and to this were added 2 times the net weight of sterile dilution fluid ([…] and 0.1% (w/v) bacteriological peptone). Samples were homogenized for 1 min in a Stomacher 400 lab blender (Seward Medical, London, England) and 50 μl of the homogenate were plated on a suitable agar medium using an Eddyjet type 1.23 spiral plater (IUL Instruments, Barcelona, Spain). Escherichia coli 0157:H7 and Salmonella typhimurium were plated on VRBG agar (Oxoid, CM0485, Basingstoke, United Kingdom). Plates were incubated for 24 hours at 30° C. and then counted.
The effect of single additions of glycine, DL-alanine and a mixture of glycine (0.67%) and DL-alanine (0.8%) on the growth of Salmonella typhimurium in milk at 12° C. is given in Table I: […]

NCC(=O)O [glycine]
effect on the growth rate of Salmonella typhimurium [1]: little or no effect
CFU/ml, day 0 [2]: 5 · 10^3 CFU/ml
CFU/ml, day 2 [2]: 5 · 10^4 CFU/ml
CFU/ml, day 4 [2]: 1 · 10^5 CFU/ml
CFU/ml, day 6 [2]: 8 · 10^4 CFU/ml

CC(N)C(=O)O (racemic) [DL-alanine]
effect on the growth rate of Salmonella typhimurium [1]: little or no effect
CFU/ml, day 0 [2]: 5 · 10^3 CFU/ml
CFU/ml, day 2 [2]: 5 · 10^4 CFU/ml
CFU/ml, day 4 [2]: 4 · 10^5 CFU/ml
CFU/ml, day 6 [2]: 1 · 10^5 CFU/ml
